pIC50: −log10 of the molar value.
The compounds below were run against ROCK2 (Homo sapiens, UniProt O75116) (assay: ROCK assay: phosphorylation of FITC peptide substrate, LABCHIP 3000 mobility shift). Conditions: 5 μM ATP, 1.5 μM peptide substrate; read-out: ROCK2 Activity (ROCK IC50 range).
Chain of ROCK2 (O75116 whole entry, species assumed): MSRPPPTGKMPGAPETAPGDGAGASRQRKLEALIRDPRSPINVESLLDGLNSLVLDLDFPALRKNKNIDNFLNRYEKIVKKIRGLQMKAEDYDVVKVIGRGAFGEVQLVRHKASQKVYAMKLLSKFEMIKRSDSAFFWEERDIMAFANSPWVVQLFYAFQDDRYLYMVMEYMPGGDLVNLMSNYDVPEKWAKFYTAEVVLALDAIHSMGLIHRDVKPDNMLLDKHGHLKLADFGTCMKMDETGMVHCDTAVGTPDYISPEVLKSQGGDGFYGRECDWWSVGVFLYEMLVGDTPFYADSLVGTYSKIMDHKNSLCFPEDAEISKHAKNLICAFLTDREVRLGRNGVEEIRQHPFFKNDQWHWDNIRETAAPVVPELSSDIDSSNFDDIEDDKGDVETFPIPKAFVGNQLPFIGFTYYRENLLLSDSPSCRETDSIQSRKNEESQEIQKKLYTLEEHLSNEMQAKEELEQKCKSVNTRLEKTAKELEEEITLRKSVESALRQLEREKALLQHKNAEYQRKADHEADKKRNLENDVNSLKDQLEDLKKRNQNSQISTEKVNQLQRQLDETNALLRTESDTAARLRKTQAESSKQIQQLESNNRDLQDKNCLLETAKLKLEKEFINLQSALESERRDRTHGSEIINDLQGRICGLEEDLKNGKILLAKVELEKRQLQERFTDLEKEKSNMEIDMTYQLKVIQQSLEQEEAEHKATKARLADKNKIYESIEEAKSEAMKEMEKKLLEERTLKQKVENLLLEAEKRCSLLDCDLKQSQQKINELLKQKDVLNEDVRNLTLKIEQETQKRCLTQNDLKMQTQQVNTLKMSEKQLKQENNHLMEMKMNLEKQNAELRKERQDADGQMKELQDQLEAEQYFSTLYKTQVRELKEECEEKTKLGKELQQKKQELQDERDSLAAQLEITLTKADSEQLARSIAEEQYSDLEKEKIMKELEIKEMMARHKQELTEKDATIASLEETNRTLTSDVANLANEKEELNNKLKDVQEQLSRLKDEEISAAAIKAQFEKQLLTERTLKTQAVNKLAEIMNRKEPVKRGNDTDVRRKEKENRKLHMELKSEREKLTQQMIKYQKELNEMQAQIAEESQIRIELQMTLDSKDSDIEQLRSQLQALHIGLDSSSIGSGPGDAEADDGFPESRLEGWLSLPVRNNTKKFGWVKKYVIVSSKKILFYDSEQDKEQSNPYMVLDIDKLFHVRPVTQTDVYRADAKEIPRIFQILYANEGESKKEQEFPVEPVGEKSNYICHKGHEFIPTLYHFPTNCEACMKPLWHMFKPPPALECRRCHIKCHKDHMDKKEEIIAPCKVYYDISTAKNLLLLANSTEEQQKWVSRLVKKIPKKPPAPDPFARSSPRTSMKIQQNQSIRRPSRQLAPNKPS
Assay type: biochemical
In short: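 IC50 values come from curve-fitting percent kinase inhibition across a compound dilution series. The reaction is started with Rho kinase variant in HEPES pH 7.5 buffer with MgCl2, Brij-35 and DTT, with 5 μM ATP, 1.5 μM FITC-labelled peptide and under 2% DMSO. After EDTA quench, product and substrate are separated by microfluidic mobility shift.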
A pIC50 of 7.82 to 8.29 was found for [H][C@]1(c2n[nH]c(=O)c3ccccc32)C[C@]2(C[C@@H](NC(=O)c3cccc(-c4nc(C)cs4)c3)C2)C1 (stereo partly drawn) [Example 340, 3-(4-methylthiazol-2-yl)-N-((aR)-6-(4-oxo-3,4-dihydrophthalazin-1-yl)spiro[3.3]heptan-2-yl)benzamide] in this work.
A pIC50 of 7.00 to 7.82 was found for [H][C@]1(c2n[nH]c(=O)c3ccccc32)C[C@]2(C[C@@H](NC(=O)c3ccc(OC)nc3)C2)C1 (stereo partly drawn) [Example 341, 6-methoxy-N-((aR)-6-(4-oxo-3,4-dihydrophthalazin-1-yl)spiro[3.3]heptan-2-yl)nicotinamide] in this work.
A pIC50 of 5.68 to 7.00 was found for [H][C@]1(c2n[nH]c(=O)c3ccccc32)C[C@]2(C[C@@H](NC(=O)c3ccc(C(F)(F)F)nc3)C2)C1 (stereo partly drawn) [Example 342, N-((aR)-6-(4-oxo-3,4-dihydrophthalazin-1-yl)spiro[3.3]heptan-2-yl)-6-(trifluoromethyl) nicotinamide] in this work.
A pIC50 of 7.00 to 7.82 was found for [H][C@]1(c2n[nH]c(=O)c3ccccc32)C[C@]2(C[C@@H](NC(=O)c3ccc(C)nc3O)C2)C1 (stereo partly drawn) [Example 343, 2-hydroxy-6-methyl-N-((aR)-6-(4-oxo-3,4-dihydrophthalazin-1-yl)spiro[3.3]heptan-2-yl)nicotinamide] in this work.
A pIC50 of 5.68 to 7.00 was found for [H][C@]1(c2n[nH]c(=O)c3ccccc32)C[C@]2(C[C@@H](NC(=O)c3ccc(CCN4CCCC4)nc3)C2)C1 (stereo partly drawn) [Example 344, N-((aR)-6-(4-oxo-3,4-dihydrophthalazin-1-yl)spiro[3.3]heptan-2-yl)-6-(2-(pyrrolidin-1-yl)ethyl)nicotinamide] in this work.
A pIC50 of 5.68 to 7.00 was found for [H][C@]1(c2n[nH]c(=O)c3ccccc32)C[C@]2(C[C@@H](NC(=O)c3ccc(-c4nn[nH]n4)cc3)C2)C1 (stereo partly drawn) [Example 345, N-((aR)-6-(4-oxo-3,4-dihydrophthalazin-1-yl)spiro[3.3]heptan-2-yl)-4-(2H-tetrazol-5-yl)benzamide] in this work.
A pIC50 of 7.00 to 7.82 was found for [H][C@]1(c2n[nH]c(=O)c3ccccc32)C[C@]2(C[C@@H](NC(=O)c3ccc(-n4cccn4)nc3)C2)C1 (stereo partly drawn) [Example 346, N-((aR)-6-(4-oxo-3,4-dihydrophthalazin-1-yl)spiro[3.3]heptan-2-yl)-6-(1H-pyrazol-1-yl)nicotinamide] in this work.
A pIC50 of 5.68 to 7.00 was found for [H][C@]1(c2n[nH]c(=O)c3ccccc32)C[C@]2(C[C@@H](NC(=O)c3cnc(O)c(Cl)c3)C2)C1 (stereo partly drawn) [Example 347, 5-chloro-6-hydroxy-N-((aR)-6-(4-oxo-3,4-dihydrophthalazin-1-yl)spiro[3.3]heptan-2-yl)nicotinamide] in this work.
A pIC50 of 7.00 to 7.82 was found for [H][C@]1(c2n[nH]c(=O)c3ccccc32)C[C@]2(C[C@@H](NC(=O)c3ccc(-n4cncn4)cc3)C2)C1 (stereo partly drawn) [Example 348, N-((aR)-6-(4-oxo-3,4-dihydrophthalazin-1-yl)spiro[3.3]heptan-2-yl)-4-(1H-1,2,4-triazol-1-yl)benzamide] in this work.
A pIC50 of 7.82 to 8.29 was found for [H][C@]1(c2n[nH]c(=O)c3ccccc32)C[C@]2(C[C@@H](NC(=O)c3ccc(-n4cnc(C)c4)c(OC)c3)C2)C1 (stereo partly drawn) [Example 349, 3-methoxy-4-(4-methyl-1H-imidazol-1-yl)-N-((aR)-6-(4-oxo-3,4-dihydrophthalazin-1-yl)spiro[3.3]heptan-2-yl)benzamide] in this work.
A pIC50 of 8.30 to 8.70 was found for [H][C@]1(c2n[nH]c(=O)c3ccccc32)C[C@]2(C[C@@H](NC(=O)c3ccc(-c4cnc(C)s4)c(OC)c3)C2)C1 (stereo partly drawn) [Example 350, 3-methoxy-4-(2-methylthiazol-5-yl)-N-((aR)-6-(4-oxo-3,4-dihydrophthalazin-1-yl)spiro[3.3]heptan-2-yl)benzamide] in this work.
A pIC50 of 5.68 to 7.00 was found for COc1ccc(C(=O)NC2CC3(C2)CC(c2n[nH]c(=O)c4ccccc24)C3)nc1 [Example 351, 5-methoxy-N-((aR)-6-(4-oxo-3,4-dihydrophthalazin-1-yl)spiro[3.3]heptan-2-yl)picolinamide] in this work.
A pIC50 of 7.00 to 7.82 was found for [H][C@]1(c2n[nH]c(=O)c3ccccc32)C[C@]2(C[C@@H](NC(=O)c3cccc(-n4ccnc4)c3)C2)C1 (stereo partly drawn) [Example 352, 3-(1H-imidazol-1-yl)-N-((aR)-6-(4-oxo-3,4-dihydrophthalazin-1-yl)spiro[3.3]heptan-2-yl)benzamide] in this work.
A pIC50 of 7.82 to 8.29 was found for [H][C@]1(c2n[nH]c(=O)c3ccccc32)C[C@]2(C[C@@H](NC(=O)c3ccc(OC(C)C)c(C#N)c3)C2)C1 (stereo partly drawn) [Example 353, 3-cyano-4-isopropoxy-N-((aR)-6-(4-oxo-3,4-dihydrophthalazin-1-yl)spiro[3.3]heptan-2-yl)benzamide] in this work.
A pIC50 of 7.82 to 8.29 was found for [H][C@]1(c2n[nH]c(=O)c3ccccc32)C[C@]2(C[C@@H](NC(=O)c3cccc(OC(F)F)c3)C2)C1 (stereo partly drawn) [Example 354, 3-(difluoromethoxy)-N-((aR)-6-(4-oxo-3,4-dihydrophthalazin-1-yl)spiro[3.3]heptan-2-yl)benzamide] in this work.
A pIC50 of 7.00 to 7.82 was found for [H][C@]1(c2n[nH]c(=O)c3ccccc32)C[C@]2(C[C@@H](NC(=O)C3=C(OCC)C(=O)N(CC(F)(F)F)C3)C2)C1 (stereo partly drawn) [Example 355, 4-ethoxy-5-oxo-N-((aR)-6-(4-oxo-3,4-dihydrophthalazin-1-yl)spiro[3.3]heptan-2-yl)-1-(2,2,2-trifluoroethyl)-2,5-dihydro-1H-pyrrole-3-carboxamide] in this work.
A pIC50 of 7.00 to 7.82 was found for [H][C@]1(c2n[nH]c(=O)c3ccccc32)C[C@]2(C[C@@H](NC(=O)c3ccc(N(C)C)nc3)C2)C1 (stereo partly drawn) [Example 356, 6-(dimethylamino)-N-((aR)-6-(4-oxo-3,4-dihydrophthalazin-1-yl)spiro[3.3]heptan-2-yl)nicotinamide] in this work.
A pIC50 of 7.00 to 7.82 was found for [H][C@]1(c2n[nH]c(=O)c3ccccc32)C[C@]2(C[C@@H](NC(=O)c3ccc(-c4cc[nH]n4)cc3)C2)C1 (stereo partly drawn) [Example 357, N-((aR)-6-(4-oxo-3,4-dihydrophthalazin-1-yl)spiro[3.3]heptan-2-yl)-4-(1H-pyrazol-3-yl)benzamide] in this work.
A pIC50 of 7.00 to 7.82 was found for [H][C@]1(c2n[nH]c(=O)c3ccccc32)C[C@]2(C[C@@H](NC(=O)c3ccc(-c4cnco4)cc3)C2)C1 (stereo partly drawn) [Example 358, 4-(oxazol-5-yl)-N-((aR)-6-(4-oxo-3,4-dihydrophthalazin-1-yl)spiro[3.3]heptan-2-yl)benzamide] in this work.
A pIC50 of 5.68 to 7.00 was found for [H][C@]1(c2n[nH]c(=O)c3ccccc32)C[C@]2(C[C@@H](NC(=O)c3ccc(-n4ccnc4)cc3)C2)C1 (stereo partly drawn) [Example 359, 4-(1H-imidazol-1-yl)-N-((aR)-6-(4-oxo-3,4-dihydrophthalazin-1-yl)spiro[3.3]heptan-2-yl)benzamide] in this work.
A pIC50 of 7.00 to 7.82 was found for [H][C@]1(c2n[nH]c(=O)c3ccccc32)C[C@]2(C[C@@H](NC(=O)c3ccc(-c4noc(C)n4)cc3)C2)C1 (stereo partly drawn) [Example 360, 4-(5-methyl-1,2,4-oxadiazol-3-yl)-N-((aR)-6-(4-oxo-3,4-dihydrophthalazin-1-yl)spiro[3.3]heptan-2-yl)benzamide] in this work.
A pIC50 of 7.82 to 8.29 was found for [H][C@]1(c2n[nH]c(=O)c3ccccc32)C[C@]2(C[C@@H](NC(=O)c3cccc(-c4cc[nH]n4)c3)C2)C1 (stereo partly drawn) [Example 361, N-((aR)-6-(4-oxo-3,4-dihydrophthalazin-1-yl)spiro[3.3]heptan-2-yl)-3-(1H-pyrazol-3-yl)benzamide] in this work.
A pIC50 of 7.00 to 7.82 was found for [H][C@]1(c2n[nH]c(=O)c3ccccc32)C[C@]2(C[C@@H](NC(=O)c3cn4cccc(C)c4n3)C2)C1 (stereo partly drawn) [Example 362, 8-methyl-N-((aR)-6-(4-oxo-3,4-dihydrophthalazin-1-yl)spiro[3.3]heptan-2-yl)imidazo[1,2-a]pyridine-2-carboxamide] in this work.
A pIC50 of 7.00 to 7.82 was found for [H][C@]1(c2n[nH]c(=O)c3ccccc32)C[C@]2(C[C@@H](NC(=O)c3cn4cc(Br)ccc4n3)C2)C1 (stereo partly drawn) [Example 363, 6-bromo-N-((aR)-6-(4-oxo-3,4-dihydrophthalazin-1-yl)spiro[3.3]heptan-2-yl)imidazo[1,2-a]pyridine-2-carboxamide] in this work.
A pIC50 of 7.82 to 8.29 was found for [H][C@]1(c2n[nH]c(=O)c3ccccc32)C[C@]2(C[C@@H](NC(=O)c3cn(C)c4ccccc34)C2)C1 (stereo partly drawn) [Example 364, 1-methyl-N-((aR)-6-(4-oxo-3,4-dihydrophthalazin-1-yl)spiro[3.3]heptan-2-yl)-1H-indole-3-carboxamide] in this work.
A pIC50 of 7.00 to 7.82 was found for [H][C@]1(c2n[nH]c(=O)c3ccccc32)C[C@]2(C[C@@H](NC(=O)c3nc(-c4ccncc4)sc3C)C2)C1 (stereo partly drawn) [Example 365, 5-methyl-N-((aR)-6-(4-oxo-3,4-dihydrophthalazin-1-yl)spiro[3.3]heptan-2-yl)-2-(pyridin-4-yl)thiazole-4-carboxamide] in this work.
A pIC50 of 7.82 to 8.29 was found for [H][C@]1(c2n[nH]c(=O)c3ccccc32)C[C@]2(C[C@@H](NC(=O)c3ccc4cnn(C)c4c3)C2)C1 (stereo partly drawn) [Example 366, 1-methyl-N-((aR)-6-(4-oxo-3,4-dihydrophthalazin-1-yl)spiro[3.3]heptan-2-yl)-1H-indazole-6-carboxamide] in this work.
A pIC50 of 7.82 to 8.29 was found for [H][C@]1(c2n[nH]c(=O)c3ccccc32)C[C@]2(C[C@@H](NC(=O)c3ccc4ccn(C)c4c3)C2)C1 (stereo partly drawn) [Example 367, 1-methyl-N-((aR)-6-(4-oxo-3,4-dihydrophthalazin-1-yl)spiro[3.3]heptan-2-yl)-1H-indole-6-carboxamide] in this work.
A pIC50 of 7.82 to 8.29 was found for [H][C@]1(c2n[nH]c(=O)c3ccccc32)C[C@]2(C[C@@H](NC(=O)c3ccc4c(ccn4C)c3)C2)C1 (stereo partly drawn) [Example 368, 1-methyl-N-((aR)-6-(4-oxo-3,4-dihydrophthalazin-1-yl)spiro[3.3]heptan-2-yl)-1H-indole-5-carboxamide] in this work.
A pIC50 of 7.00 to 7.82 was found for [H][C@]1(c2n[nH]c(=O)c3ccccc32)C[C@]2(C[C@@H](NC(=O)c3ccc(N4CCCC4)cn3)C2)C1 (stereo partly drawn) [Example 369, N-((aR)-6-(4-oxo-3,4-dihydrophthalazin-1-yl)spiro[3.3]heptan-2-yl)-5-(pyrrolidin-1-yl)picolinamide] in this work.
A pIC50 of 7.82 to 8.29 was found for [H][C@]1(c2n[nH]c(=O)c3ccccc32)C[C@]2(C[C@@H](NC(=O)c3ccc(C(F)(F)F)cn3)C2)C1 (stereo partly drawn) [Example 370, N-((aR)-6-(4-oxo-3,4-dihydrophthalazin-1-yl)spiro[3.3]heptan-2-yl)-5-(trifluoromethyl) picolinamide] in this work.
